# Measured values reported in patent publication US11564913B2, “Compositions and methods for treating cancer” (Children's Hospital Medical Center, priority 2019, dated 2023).
# Tested on: active GTP-bound Ras in ST8814 cells
# Experiment: Active Ras pull-down with GST-RafRBD
# Format: cell-based
# Conditions: 2 μM
# Procedure: FIG. 4. IODVA1 inhibits proliferation of cancer model cells. (A) IODVA1 is a potent cell proliferation inhibitor. MCF10A, MCF7, MDA-MB-231, and T47D cells were grown in the presence of the indicated IODVA1 concentrations and counted for 4 or up to 7 days. Each dot and bar is the mean±stdev respectively, of 3 independent experiments, with 2 technical replicates in each experiment. (B) Number of colonies made by MCF7, T47D, and MDA-MB-231 cells at the indicated IODVA1 concentrations. Results shown are mean±stdev of 2 independent experiments with 4 technical replicates each. (C) IODVA1 deactivates Ras at late incubation times. […] Quantification summary of 2 independent experiments is presented in the graph. n.s.—not significant, *-p<0.05, **-p<0.01, ****-p<0.0001. (D) IODVA1 inhibits proliferation of ST8814 cells. ST8814 cells were grown in the presence of the indicated IODVA1 concentrations and counted daily for 4 days. Each dot and bar is the mean and standard deviation respectively, of 3 independent experiments.
# To check if IODVA1 inhibits Ras activation in cells, applicants determined the levels of active-GTP-bound-Ras in ST88-14 cells treated with IODVA1 (2 μM) or vehicle control at various time points. GST-RafRBD bound glutathione-beads were incubated with ST8814 cell lysates, thoroughly washed, and the protein complex separated on SDS-PAGE. Levels of GTP-bound pan-RAS proteins bound to RafRBD were determined by immunoblotting.
# Levels of active Ras, Rac, Cdc42 and RhoA were determined using the Active Ras Pull-Down and Detection Kit, Active Rac Pull-Down and Detection Kit (Thermo Scientific) and RhoA/Rac1/Cdc4 Pull-down Activation Assay Combo Biochem Kit (Cytoskeleton). Cells were cultured and treated as indicated and lysed in buffer provided by the manufacturer. […] Proteins were resolved by SDS-PAGE, transferred to nitrocellulose and the level of active GTPase relative to input lysate were determined by immunoblotting analysis using the anti-Ras, anti-Rac, anti-Cdc42, or anti-RhoA antibody supplied by the manufacturer.
smiles,measurement,setting,value
"OC1(c2ccccn2)N=C(Nc2nc3ccccc3[nH]2)N=C1c1ccccn1 (stereo not drawn) [IODVA1, (Z)-2-((1H-benzo[d]imidazol-2-yl)imino)-4,5-di(pyridin-2-yl)-2,5-dihydro-1H-imidazol-5-ol]",levels of active Ras versus vehicle control,24 h,similar
same,levels of active Ras versus vehicle control,48 h,decrease in active Ras levels is seen
same,decrease in active Ras levels,72 h,very noticeable
